Laboratory results as given in BigSolDB 2.1.

Brc1sc(Br)c(Br)c1Br
solubility (mole fraction)
Conditions | in THF | in chloroform | in ethanol | in ethyl acetate | in ethyl formate | in methanol | in n-butanol | in n-propanol | in toluene
278.05 K | 0.0405 | 0.02 | – | 0.00809 | 0.00389 | – | 0.00267 | – | 0.027
281.25 K | 0.0436 | 0.0229 | 0.00149 | 0.00924 | 0.00451 | 0.000395 | 0.00295 | 0.00219 | 0.0314
286.15 K | 0.0469 | 0.0269 | 0.00165 | 0.0109 | 0.00546 | 0.000465 | 0.00369 | 0.00256 | 0.0358
290.15 K | 0.0511 | 0.0302 | 0.0018 | 0.0124 | 0.00632 | 0.000517 | 0.00433 | 0.00287 | 0.04
293.15 K | 0.0538 | 0.0334 | 0.002 | 0.0137 | 0.00705 | 0.000567 | 0.0048 | 0.00319 | 0.044
297.15 K | 0.0572 | 0.039 | 0.00221 | 0.0154 | 0.00809 | 0.000646 | 0.0054 | 0.00364 | 0.0486
302.15 K | 0.0625 | 0.0455 | 0.00267 | 0.0183 | 0.00969 | 0.00076 | 0.00636 | 0.00433 | 0.0554
307.15 K | 0.0685 | 0.0536 | 0.0031 | 0.0216 | 0.0118 | 0.000896 | 0.0077 | 0.00514 | 0.0626
311.65 K | 0.0738 | 0.0629 | 0.00356 | 0.0249 | 0.0138 | 0.00103 | 0.00895 | 0.00584 | 0.0713
315.65 K | 0.0788 | 0.0687 | 0.00404 | 0.0279 | 0.0154 | 0.0012 | 0.0102 | 0.0067 | 0.0756
320.15 K | 0.0843 | 0.0781 | 0.00475 | 0.0326 | 0.0174 | 0.00144 | 0.0118 | 0.00812 | 0.0834
325.15 K | – | – | 0.00566 | – | – | 0.00169 | – | 0.00965 | –
